Test results as given in patent publication US20110160223A1, “NMDA Receptor Antagonists for the Treatment of Neuropsychiatric Disorders” (priority 2008, published 2011).
Like-named read-outs stand apart in the source and are kept apart here.

What was measured:
[1] = target: NMDA receptor (NR1 + NR2 subunits) (Rattus norvegicus, UniProt P35439+Q00960); experiment: Two electrode voltage clamp recording from Xenopus laevis oocytes (pH dependence of NMDA antagonism); assay type: cell-based; conditions: Table 22
NMDA receptor (NR1 + NR2 subunits), sequence (Q00960 27-1482, other chains not shown): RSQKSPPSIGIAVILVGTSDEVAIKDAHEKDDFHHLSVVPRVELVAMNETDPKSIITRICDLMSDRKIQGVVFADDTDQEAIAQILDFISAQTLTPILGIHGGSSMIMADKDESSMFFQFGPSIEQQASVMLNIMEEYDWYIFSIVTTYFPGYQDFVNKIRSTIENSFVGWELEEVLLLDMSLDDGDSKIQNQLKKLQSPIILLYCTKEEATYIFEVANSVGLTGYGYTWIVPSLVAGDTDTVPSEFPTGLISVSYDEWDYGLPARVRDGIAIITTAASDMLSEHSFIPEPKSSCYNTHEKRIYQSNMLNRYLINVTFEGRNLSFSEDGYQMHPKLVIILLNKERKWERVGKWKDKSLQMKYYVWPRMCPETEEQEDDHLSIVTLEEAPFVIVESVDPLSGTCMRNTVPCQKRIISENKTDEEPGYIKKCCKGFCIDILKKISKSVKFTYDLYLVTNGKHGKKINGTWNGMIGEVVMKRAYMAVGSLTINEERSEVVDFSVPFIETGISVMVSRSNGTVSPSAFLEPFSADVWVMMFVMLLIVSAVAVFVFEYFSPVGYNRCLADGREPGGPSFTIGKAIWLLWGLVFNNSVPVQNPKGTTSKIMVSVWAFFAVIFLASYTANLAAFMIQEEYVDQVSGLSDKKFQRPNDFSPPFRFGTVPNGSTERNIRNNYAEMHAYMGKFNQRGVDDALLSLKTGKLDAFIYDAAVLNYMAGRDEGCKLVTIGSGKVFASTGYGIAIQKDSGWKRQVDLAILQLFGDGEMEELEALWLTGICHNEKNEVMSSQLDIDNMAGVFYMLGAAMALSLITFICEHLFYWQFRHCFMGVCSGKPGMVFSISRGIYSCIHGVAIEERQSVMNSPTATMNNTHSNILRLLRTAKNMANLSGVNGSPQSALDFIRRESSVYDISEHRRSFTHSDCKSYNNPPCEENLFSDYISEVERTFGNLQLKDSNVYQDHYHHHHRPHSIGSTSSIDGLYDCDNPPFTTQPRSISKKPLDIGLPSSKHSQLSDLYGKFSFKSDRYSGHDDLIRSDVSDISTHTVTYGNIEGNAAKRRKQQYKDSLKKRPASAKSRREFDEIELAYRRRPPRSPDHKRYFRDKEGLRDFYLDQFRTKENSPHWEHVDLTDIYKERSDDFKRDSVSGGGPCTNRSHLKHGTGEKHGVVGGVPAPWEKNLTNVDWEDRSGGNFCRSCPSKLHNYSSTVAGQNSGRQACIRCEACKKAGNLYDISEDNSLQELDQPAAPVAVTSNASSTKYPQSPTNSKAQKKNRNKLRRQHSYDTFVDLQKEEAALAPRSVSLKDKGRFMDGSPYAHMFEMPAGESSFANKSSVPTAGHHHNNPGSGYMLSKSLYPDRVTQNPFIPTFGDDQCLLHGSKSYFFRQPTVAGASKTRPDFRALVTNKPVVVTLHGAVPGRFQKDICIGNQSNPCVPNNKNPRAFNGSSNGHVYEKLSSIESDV
Method: cRNA was synthesized from linearized template cDNA for rat glutamate receptor subunits according to manufacturer specifications (Ambion). Quality of synthesized cRNA was assessed by gel electrophoresis, and quantity was estimated by spectroscopy and gel electrophoresis. Stage V and VI oocytes were surgically removed from the ovaries of large, well-fed and healthy Xenopus laevis anesthetized with 3-amino-benzoic acid ethyl ester (3 gm/l) as previously described. Clusters of isolated oocytes were incubated with 292 U/ml Worthington (Freehold, N.J.) type IV collagenase or 1.3 mg/ml collagenase (Life Technologies, Gaithersburg, Md.; 17018-029) for 2 hr in Ca^2+-free solution comprised of (in mM) 115 NaCl, 2.5 KCl, and 10 HEPES, pH 7.5, with slow agitation to remove the follicular cell layer. Oocytes were then washed extensively in the same solution supplemented with 1.8 mM CaCl2 and maintained in Barth's solution comprised of (in mM): 88 NaCl, 1 KCl, 2.4 NaHCO3, 10 HEPES, 0.82 MgSO4, 0.33 Ca(NO3)2, and 0.91 CaCl2 and supplemented with 100 μg/ml gentamycin, 10 μg/ml streptomycin, and 10 μg/ml penicillin. Oocytes were manually defolliculated and injected within 24 hrs of isolation with 3-5 ng of NR1 subunit cRNA and 7-10 ng of NR2 cRNA subunit in a 50 nl volume, or 5-10 ng of AMPA or kainate receptor cRNAs in a 50 nl volume, and incubated in Barth's solution at 18° C. for 1-7 d. Glass injection pipettes had tip sizes ranging from 10-20 microns, and were backfilled with mineral oil.
Two electrode voltage-clamp recordings were made 2-7 days post-injection as previously described. Oocytes were placed in a dual-track plexiglass recording chamber with a single perfusion line that splits in a Y-configuration to perfuse two oocytes. Dual recordings were made at room temperature (23° C.) using two Warner OC725B two-electrode voltage clamp amplifiers, arranged as recommended by the manufacturer. Glass microelectrodes (1-10 Megaohms) were filled with 300 mM KCl (voltage electrode) or 3 M KCl (current electrode). The bath clamps communicated across silver chloride wires placed into each side of the recording chamber, both of which were assumed to be at a reference potential of 0 mV. Oocytes were perfused with a solution comprised of (in mM) 90 NaCl, 1 KCl, 10 HEPES, and 0.5 BaCl2; pH was adjusted by addition of 1-3 M NaOH of HCl. Oocytes were recorded under voltage clamp at −40 mV. Final concentrations for control application of glutamate (50 μM) plus glycine (30 μM) were achieved by adding appropriate volumes from 100 and 30 mM stock solutions, respectively. In addition, 10 μM final EDTA was obtained by adding a 1:1000 dilution of 10 mM EDTA, in order to chelate contaminant divalent ions such as Zn^2+. Concentration-response curves for experimental compounds were obtained by applying in successive fashion maximal glutamate/glycine, followed by glutamate/glycine plus variable concentrations of experimental compounds. Dose response curves consisting of 4 to 8 concentrations were obtained in this manner. The baseline leak current at −40 mV was measured before and after recording, and the full recording linearly corrected for any change in leak current. Oocytes with glutamate-evoked responses smaller than 50 nA were not included in the analysis. The level of inhibition by applied experimental compounds was expressed as a percent of the initial glutamate response, and averaged together across oocytes from a single frog. Each experiment consisted of recordings from 3 to 10 oocytes obtained from a single frog. Results from 3-6 experiments were pooled, and the average percent responses at antagonist concentrations were fitted by the equation,
Percent Response=(100−minimum)/(1+([conc]/IC50)^nH)+minimum […]

[2] = target: T1, human ether-a-go-go potassium channel (hERG) expressed in HEK293 cells (Homo sapiens, UniProt Q12809); experiment: hERG binding by displacement of 3[H]-astemizole; conditions: 3[H]-astemizole displacement; Ki from IC50 by Cheng and Prusoff
T1 construct: expressed in transfected cells; host or cells: HEK293
T1 sequence (Q12809 whole entry): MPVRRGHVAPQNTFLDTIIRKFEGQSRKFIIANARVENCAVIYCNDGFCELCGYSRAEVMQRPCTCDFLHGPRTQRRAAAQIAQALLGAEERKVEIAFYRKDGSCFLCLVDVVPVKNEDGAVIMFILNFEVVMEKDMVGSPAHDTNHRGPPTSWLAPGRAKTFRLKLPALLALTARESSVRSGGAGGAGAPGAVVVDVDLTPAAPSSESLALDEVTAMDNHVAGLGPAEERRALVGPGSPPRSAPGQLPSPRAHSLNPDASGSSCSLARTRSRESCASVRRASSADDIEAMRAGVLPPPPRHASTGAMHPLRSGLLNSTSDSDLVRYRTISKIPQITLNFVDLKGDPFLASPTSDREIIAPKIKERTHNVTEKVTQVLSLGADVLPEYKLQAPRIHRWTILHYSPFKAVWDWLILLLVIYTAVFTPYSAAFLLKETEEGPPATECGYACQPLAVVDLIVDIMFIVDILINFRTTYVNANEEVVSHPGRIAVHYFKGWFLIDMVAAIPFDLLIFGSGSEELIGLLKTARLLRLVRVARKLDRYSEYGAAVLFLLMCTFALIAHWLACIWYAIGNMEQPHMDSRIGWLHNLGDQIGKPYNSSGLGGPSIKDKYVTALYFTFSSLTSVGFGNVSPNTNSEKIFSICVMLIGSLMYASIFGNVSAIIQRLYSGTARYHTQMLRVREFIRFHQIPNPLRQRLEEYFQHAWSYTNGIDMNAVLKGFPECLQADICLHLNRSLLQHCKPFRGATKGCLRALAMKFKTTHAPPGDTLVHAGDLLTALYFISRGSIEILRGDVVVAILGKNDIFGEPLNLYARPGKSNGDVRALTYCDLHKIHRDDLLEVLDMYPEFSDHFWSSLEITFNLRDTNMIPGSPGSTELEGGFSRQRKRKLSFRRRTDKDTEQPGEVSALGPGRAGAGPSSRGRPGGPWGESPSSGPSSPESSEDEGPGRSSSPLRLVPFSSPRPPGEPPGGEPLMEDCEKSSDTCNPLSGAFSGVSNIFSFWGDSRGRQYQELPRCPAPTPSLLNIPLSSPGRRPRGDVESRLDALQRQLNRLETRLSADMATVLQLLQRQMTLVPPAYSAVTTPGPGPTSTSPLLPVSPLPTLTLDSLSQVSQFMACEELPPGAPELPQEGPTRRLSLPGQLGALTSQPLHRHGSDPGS
Method: Compounds were evaluated for binding to the human ether-a-go-go potassium channel (hERG) expressed in HEK293 cells by displacement of ^3[H]-astemizole according to the methods by Finlayson et al. (K. Finlayson., L. Turnbull, C. T. January, J. Sharkey, J. S. Kelly; ^3[H]Dofetilide binding to HERG transfected membranes: a potential high throughput preclinical screen. Eur. J. Pharmacol. 2001, 430, 147-148). Compounds were incubated at 1 or 10 μM final concentration, in duplicate, and the amount of displaced ^3[H]-astemizole determined by liquid scintillation spectroscopy. In some cases, a seven concentration (each concentration in duplicate) displacement curve was generated to determine an IC50.
(§1) Binding IC50 values were determined from displacement curves (four-six concentrations, each concentration in duplicate) fit by a non-linear, least squares, regression analysis using MathIQ (ID Business Solutions Ltd., UK). The binding Ki's were determined from the IC50 according to the method of Cheng and Prusoff (Y. Cheng and W. H. Prusoff; Relationship between the inhibition constant (K1) and the concentration of inhibitor which causes 50 percent inhibition (IC50) of an enzymatic reaction. Biochem. Pharmacol. 1973, 22: 3099-3108).

[3] = target: rat alpha-1 adrenergic receptor in rat brain membranes; experiment: alpha-1 adrenergic receptor binding by displacement of 3[H]-prazosin; conditions: 3[H]-prazosin displacement, read-out: α1 IC50
Method: Binding to the rat alpha-1 adrenergic receptor in rat brain membranes was determined by displacement of ^3[H]-prazosin (P. Greengrass and R. Bremner; Binding characteristics of 3H-prazosin to rat brain a-adrenergic receptors. Eur. J. Pharmacol. 1979, 55: 323-326). Compounds were incubated at 0.3 or 3 μM final concentration, in duplicate, and the amount of displaced ^3[H]-prazosin determined by liquid scintillation spectroscopy.
as §1

[4] = Brain exposure (brain:plasma ratio, Table 24); assay type: in vivo, Rats; conditions: rat, brain and plasma, read-out: RATIO: Brain:plasma (Direct); for Kp at 30 min: 30 m; for Kp: avg
Method: Animals were fasted overnight prior to dose administration and food returned to the animals two hours after dosing. Following IV dosing, blood samples (ca 200 μL) were collected into separate tubes containing anticoagulant (K-EDTA) via the orbital plexus at various times post administration. Plasma samples were prepared immediately after collection by centrifugation for ten minutes using a tabletop centrifuge, and stored at −80° C. Brain tissue was weighed, homogenized on ice in 50 mM phosphate buffer (2 ml per brain) and the homogenate stored at −80° C. Plasma and brain homogenate samples were extracted by the addition of 5 volumes of cold acetonitrile, mixed well by vortexing and centrifuged at 4000 rpm for 15 minutes. The supernatant fractions were analyzed by LC-MS/MS operating in multiple reaction monitoring mode (MRM). The amount of parent compound in each sample was calculated by comparing the response of the analyte in the sample to that of a standard curve.

[5] = tested on: MDR1-MDCK cell monolayers that express the multidrug transporter P-gp; experiment: In vitro cell permeability assay to predict brain penetration potential; assay type: in vitro ADME; design: key: High: when Papp A−B≧3.0×10−6 cm/s, and efflux<3.0; Moderate: when Papp A−B≧3.0×10−6 cm/s, and 10>efflux≧3.0; Low: when either Papp A−B≧3.0×10−6 cm/s, and efflux≧10, or when Papp A−B<3.0×10−6 cm/s; conditions: 5 μM, pH 7.4, 2 hr, from Papp A-B and efflux ratio
Method: Penetration Classification (Table 24) using the in vitro cell permeability assay to predict bran penetration potential: Transwell® wells containing MDR1-MDCK cell monolayers that express the multidrug transporter P-gp were used for measuring the percent recovery of compound after dosing both sides of a cell monolayer with the test article. Monolayers were grown for 7-11 days at which time 5 μM of the test article was made by dilution from DMSO stocks into a Hank's balanced salt solution (pH 7.4), final DMSO not greater than 1%, and added to: a) the apical side for A-B permeability (apical to basal) assessment, or separately b) the basal side for the B-A permeability (basal to apical) assessment, all at pH 7.4. After a 2 hr incubation (37° C.) both the apical and the basal compartments were sampled and the amount of test article present determined by generic LC-MS/MS methods against a ≧4 point calibration curve. Experiments were done in duplicate. Apparent permeability (Papp units are reported×10−6 cm/s) are determined for the A−B and the B−A directions as well as the Efflux ratio (PappB−A/Papp A−B). The blood-brain barrier penetration potential is classified as follows: “High” when Papp A−B≧3.0×10−6 cm/s, and efflux<3.0; “Moderate” when Papp A−B≧3.0×10−6 cm/s, and 10>efflux≧3.0; and “Low” when either Papp A−B≧3.0×10−6 cm/s, and efflux≧10, or when Papp A−B<3.0×10−6 cm/s.

Row | Structure (SMILES) | IC50 ([1]; pH 6.9, read-out: IC50 pH 6.9) [nM] | IC50 ([1]; pH 7.6, read-out: IC50 pH 7.6) [nM] | Ki [2] [nM] | IC50 [3] [nM] | BBB Pene Classification [5] | other results
1 | CS(=O)(=O)Nc1ccc(OC[C@@H](O)CN2CCN(c3ccc(Cl)cc3)CC2)cc1 | 32 | 270 | 553 | 350 |  | 
2 | O[C@H](COc1ccc2[nH]ncc2c1)CN1CCN(c2ccc(Cl)cc2)CC1 | 410 | 3830 | ~1000 | ~300 |  | 
3 | O=c1ccc2cc(OC[C@@H](O)CN3CCN(c4ccc(Cl)cc4)CC3)ccc2[nH]1 | 69 | 550 | ~7500 | ~350 |  | 
4 | O=C1Cc2cc(OC[C@@H](O)CN3CCN(c4ccc(Cl)cc4)CC3)ccc2N1 | 370 | 29 | ~10000 | ~100 |  | 
5 | O[C@H](COc1ccc2[nH]c(=S)[nH]c2c1)CN1CCN(c2ccc(Cl)cc2)CC1 | 16 | 76 | ~7500 | ~150 |  | 
6 | O=C1CCc2cc(OC[C@@H](O)CN3CCN(c4ccc(Cl)cc4)CC3)ccc2N1 | 12 | 66 | ~5000 | ~100 |  | 
7 | Oc1ccc(OC[C@@H](O)CN2CCN(c3ccc(Cl)cc3)CC2)cc1 [drawing 775] | 74 | 555 | 39000 | 720 |  | 
8 | O=c1[nH]c2ccc(OC[C@@H](O)CN3CCN(c4ccc(Cl)cc4)CC3)cc2o1 [drawing 776] | 51 | 447 | 1600 | 620 |  | 
9 | NC(=O)Nc1ccc(OC[C@@H](O)CN2CCN(c3ccc(Cl)cc3)CC2)cc1 [drawing 778] | 46 | 452 | 13000 | 340 |  | 
10 | O=c1[nH]c2ccc(OC[C@@H](O)CN3CCN(c4ccc(Cl)cc4)CC3)cc2[nH]1 [drawing 781] | 14 | 103 | ~7500 | ~350 |  | 
11 | Oc1ccc(OC[C@@H](O)CN2CCN(c3ccc(Cl)cc3)CC2)cc1 [drawing 800] |  |  |  |  | High (when Papp A−B≧3.0×10−6 cm/s, and efflux<3.0) | Kp at 30 min ([4]; iv, 3 mg/kg, 3 MPK i.v.): 11; Kp at 1 h ([4]; iv, 3 mg/kg, 3 MPK i.v., 1 hr): 9.5; Kp ([4]; iv, 3 mg/kg, 3 MPK i.v.): 10.2
12 | Cc1ccc(N2CCN(C[C@H](O)COc3ccc4[nH]c(=O)oc4c3)CC2)cc1 [drawing 801] |  |  |  |  | Moderate (when Papp A−B≧3.0×10−6 cm/s, and 10>efflux≧3.0) | Kp at 30 min ([4]; iv, 3 mg/kg, 3 MPK i.v.): 2.3; Kp at 1 h ([4]; iv, 3 mg/kg, 3 MPK i.v., 1 hr): 2.9; Kp at 2 h ([4]; iv, 3 mg/kg, 3 MPK i.v.): 1.7; Kp ([4]; iv, 3 mg/kg, 3 MPK i.v.): 2.3
13 | CS(=O)(=O)Nc1ccc(OC[C@@H](O)CN2CCN(c3ccc(F)c(F)c3)CC2)cc1 [drawing 802] |  |  |  |  | Moderate (when Papp A−B≧3.0×10−6 cm/s, and 10>efflux≧3.0) | Kp at 30 min ([4]; ip, 60 mg/kg, 60 MPK, i.p.): 0.7; Kp at 2 h ([4]; ip, 60 mg/kg, 60 MPK, i.p.): 0.7; Kp at 4 h ([4]; ip, 60 mg/kg, 60 MPK, i.p., 4 hr): 0.9; Kp ([4]; ip, 60 mg/kg, 60 MPK, i.p.): 0.77
14 | NC(=O)Nc1ccc(OC[C@@H](O)CN2CCN(c3ccc(Cl)cc3)CC2)cc1 [drawing 803] |  |  |  |  | Low | Kp at 30 min ([4]; iv, 1 mg/kg, 1MPK i.v.): 0.24; Kp at 6 h ([4]; iv, 3 mg/kg, 3 MPK i.v., 6 hr): 0.49; Kp at 1 hr ([4]; iv, 3 MPK i.v. @ 6 hr, 1MPK @ 0.5 hr and 2 hr, 1 hr): 0.53; Kp ([4]; iv, 3 MPK i.v. @ 6 hr, 1MPK @ 0.5 hr and 2 hr): 0.42
15 | O=C1N(C[C@H](O)COc2ccc(O)cc2)CCN1c1ccc(Cl)cc1 [drawing 804] |  |  |  |  | High (when Papp A−B≧3.0×10−6 cm/s, and efflux<3.0) | Kp at 30 min ([4]; iv, 3 mg/kg, 3 MPK i.v.): 0.68; Kp at 1 h ([4]; iv, 3 mg/kg, 3 MPK i.v., 1 hr): 0.49; Kp ([4]; iv, 3 mg/kg, 3 MPK i.v.): 0.59
